Measured values reported in US10344025B2, “GLS1 inhibitors for treating disease” (Board of Regents, The University of Texas System, priority 2014, dated 2019).

Columns and labels:
[1] = target: purified recombinant human GAC (GLS1) (Homo sapiens (Human), UniProt O94925); experiment: GLS1 Enzymatic Activity Assay (dual-coupled enzymatic assay, resorufin/Amplex UltraRed readout); type: biochemical;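 note: glutamate from GAC coupled via glutamate oxidase and peroxidase to resorufin, read as fluorescence (ex 530, em 590 nm) kinetically or at 20 min, four-parameter logistic IC50 fit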
A549 cells = experiment: Proliferation Assay (A549 viability, Cell Titer Fluor, 72 hours); type: cell-based; details: Homo sapiens
Procedure, shortened: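 Cell Titer Fluor fluorescence after 72 h compound treatment (0.5% DMSO, 37 °C, 5% CO2) of A549 cells plated 24 h earlier at 1000/well. Four-parameter logistic fitting gave IC50.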

Chain of purified recombinant human GAC (GLS1) (O94925 other isoform, or with tags, fused parts or gaps): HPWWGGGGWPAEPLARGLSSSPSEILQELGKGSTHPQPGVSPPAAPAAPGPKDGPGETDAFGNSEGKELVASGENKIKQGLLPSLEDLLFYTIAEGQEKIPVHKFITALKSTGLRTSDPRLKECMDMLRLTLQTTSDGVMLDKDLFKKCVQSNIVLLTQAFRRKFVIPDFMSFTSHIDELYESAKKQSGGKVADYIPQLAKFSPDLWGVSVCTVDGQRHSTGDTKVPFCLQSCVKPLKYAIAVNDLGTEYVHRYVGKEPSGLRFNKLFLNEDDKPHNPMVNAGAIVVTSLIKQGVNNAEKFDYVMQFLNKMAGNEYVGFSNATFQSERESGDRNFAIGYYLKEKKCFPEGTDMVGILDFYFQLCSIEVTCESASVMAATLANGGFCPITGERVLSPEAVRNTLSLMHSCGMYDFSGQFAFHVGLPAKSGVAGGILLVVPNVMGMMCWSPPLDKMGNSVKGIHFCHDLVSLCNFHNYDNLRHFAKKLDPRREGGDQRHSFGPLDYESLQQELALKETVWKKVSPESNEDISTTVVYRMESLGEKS

Structure (SMILES)	IC50 [1] [nM]	EC50 (A549 cells; A549, 72 h) [nM]	EC50 (A549 cells) [nM]
Cc1ccc(CNC(=O)c2cn(CCC(F)Cn3cc(C(=O)NCc4cc(OC(F)(F)F)ccc4F)nn3)nn2)cn1 (centres unmarked) [Example 370, 1-{3-fluoro-4-[4-({[2-fluoro-5-(trifluoromethoxy)phenyl]methyl}carbamoyl)-1H-1,2,3-triazol-1-yl]butyl}-N-[(6-methylpyridin-3-yl)methyl]-1H-1,2,3-triazole-4-carboxamide]	< 100	< 100	–
O=C(CN1CC(F)C1)Nc1cn(CC(F)CCn2cc(C(=O)NCc3cc(OC(F)(F)F)ccc3F)nn2)nn1 (centres unmarked) [Example 372, 1-(3-fluoro-4-(4-(2-(3-fluoroazetidin-1-yl)acetamido)-1H-1,2,3-triazol-1-yl)butyl)-N-(2-fluoro-5-(trifluoromethoxy)benzyl)-1H-1,2,3-triazole-4-carboxamide]	< 100	–	100 to 500
Cc1ccc(CNC(=O)c2cn(CCC(F)Cn3cc(NC(=O)Cc4cc(OC(F)(F)F)ccc4F)nn3)nn2)cn1 (centres unmarked) [Example 376, 1-[3-fluoro-4-(4-{2-[2-fluoro-5-(trifluoromethoxy)phenyl]acetamido}-1H-1,2,3-triazol-1-yl)butyl]-N-[(6-methylpyridin-3-yl)methyl]-1H-1,2,3-triazole-4-carboxamide]	< 100	< 100	–
O=C(Cc1cc(OC(F)(F)F)ccc1F)Nc1cn(CC(F)CCn2cc(C(=O)NCc3ncccc3F)nn2)nn1 (centres unmarked) [Example 378, 1-[3-fluoro-4-(4-{2-[2-fluoro-5-(trifluoromethoxy)phenyl]acetamido}-1H-1,2,3-triazol-1-yl)butyl]-N-[(3-fluoropyridin-2-yl)methyl]-1H-1,2,3-triazole-4-carboxamide]	< 100	< 100	–
O=C(Cc1cc(OC(F)(F)F)ccc1F)Nc1cn(CC(F)CCn2cc(C(=O)NCc3cccc(OC(F)(F)F)c3)nn2)nn1 (centres unmarked) [Example 379, 1-[3-fluoro-4-(4-{2-[2-fluoro-5-(trifluoromethoxy)phenyl]acetamido}-1H-1,2,3-triazol-1-yl)butyl]-N-{[3-(trifluoromethoxy)phenyl]methyl}-1H-1,2,3-triazole-4-carboxamide]	< 100	< 100	–
O=C(Cc1cc(OC(F)(F)F)ccc1F)Nc1cn(CCCCn2cc(C(=O)NCc3cc(OC(F)(F)F)ccc3F)nn2)nn1 [Example 381, 1-[4-(4-{2-[2-fluoro-5-(trifluoromethoxy)phenyl]acetamido}-1H-1,2,3-triazol-1-yl)butyl]-N-{[2-fluoro-5-(trifluoromethoxy)phenyl]methyl}-1H-1,2,3-triazole-4-carboxamide]	< 100	< 100	–
O=C(Cc1cc(OC(F)(F)F)ccc1F)Nc1cn(CCCCn2cc(C(=O)NCc3cc(Cl)ccc3F)nn2)nn1 [Example 384, N-[(5-chloro-2-fluorophenyl)methyl]-1-[4-(4-{2-[2-fluoro-5-(trifluoromethoxy)phenyl]acetamido}-1H-1,2,3-triazol-1-yl)butyl]-1H-1,2,3-triazole-4-carboxamide]	< 100	< 100	–
O=C(Cc1cc(Cl)ccc1F)Nc1cn(CCCCn2cc(C(=O)NCc3cc(OC(F)(F)F)ccc3F)nn2)nn1 [Example 386, 1-(4-{4-[2-(5-chloro-2-fluorophenyl)acetamido]-1H-1,2,3-triazol-1-yl}butyl)-N-{[2-fluoro-5-(trifluoromethoxy)phenyl]methyl}-1H-1,2,3-triazole-4-carboxamide]	< 100	< 100	–
Cc1ccc(CNC(=O)c2cn(CCCCn3cc(NC(=O)Cc4cc(Cl)ccc4F)nn3)nn2)cn1 [Example 388, 1-(4-{4-[2-(5-chloro-2-fluorophenyl)acetamido]-1H-1,2,3-triazol-1-yl}butyl)-N-[(6-methylpyridin-3-yl)methyl]-1H-1,2,3-triazole-4-carboxamide]	< 100	100 to 500	–
O=C(CN1CC(F)(F)C1)Nc1cn(CC(F)CCn2cc(C(=O)NCc3cc(OC(F)(F)F)ccc3F)nn2)nn1 (centres unmarked) [Example 390, 1-(4-{4-[2-(3,3-difluoroazetidin-1-yl)acetamido]-1H-1,2,3-triazol-1-yl}-3-fluorobutyl)-N-{[2-fluoro-5-(trifluoromethoxy)phenyl]methyl}-1H-1,2,3-triazole-4-carboxamide]	< 100	< 100	–
O=C(Cc1cc(OC(F)(F)F)ccc1F)Nc1cn(CC(F)CCn2cc(C(=O)NCc3cc(C(F)(F)F)ccn3)nn2)nn1 (centres unmarked) [Example 395, 1-[3-fluoro-4-(4-{2-[2-fluoro-5-(trifluoromethoxy)phenyl]acetamido}-1H-1,2,3-triazol-1-yl)butyl]-N-{[4-(trifluoromethyl)pyridin-2-yl]methyl}-1H-1,2,3-triazole-4-carboxamide]	< 100	< 100	–

The next lines start with results.

IC50 [1] [nM]	EC50 (A549 cells; A549, 72 h) [nM]	Structure (SMILES)	EC50 (A549 cells) [nM]
< 100	100 to 500	O=C(CN1CC(F)C1)Nc1cn(CC(F)CCn2cc(C(=O)NCc3cccc(OC(F)(F)F)c3)nn2)nn1 (centres unmarked) [Example 371, 1-(3-fluoro-4-{4-[2-(3-fluoroazetidin-1-yl)acetamido]-1H-1,2,3-triazol-1-yl}butyl)-N-{[3-(trifluoromethoxy)phenyl]methyl}-1H-1,2,3-triazole-4-carboxamide]	–
< 100	< 100	O=C(NCc1ccccn1)c1cn(CCC(F)Cn2cc(C(=O)NCc3cc(OC(F)(F)F)ccc3F)nn2)nn1 (centres unmarked) [Example 373, 1-{3-fluoro-4-[4-({[2-fluoro-5-(trifluoromethoxy)phenyl]methyl}carbamoyl)-1H-1,2,3-triazol-1-yl]butyl}-N-(pyridin-2-ylmethyl)-1H-1,2,3-triazole-4-carboxamide]	–
< 100	< 100	O=C(Cc1cc(OC(F)(F)F)ccc1F)Nc1cn(CC(F)CCn2cc(C(=O)NCc3ccccn3)nn2)nn1 (centres unmarked) [Example 375, 1-[3-fluoro-4-(4-{2-[2-fluoro-5-(trifluoromethoxy)phenyl]acetamido}-1H-1,2,3-triazol-1-yl)butyl]-N-(pyridin-2-ylmethyl)-1H-1,2,3-triazole-4-carboxamide]	–
< 100	< 100	O=C(Cc1cc(OC(F)(F)F)ccc1F)Nc1cn(CC(F)CCn2cc(C(=O)NCc3cc(OC(F)(F)F)ccc3F)nn2)nn1 (centres unmarked) [Example 377, 1[3-fluoro-4-(4-{2-[2-fluoro-5-(trifluoromethoxy)phenyl]acetamido}-1H-1,2,3-triazol-1-yl)butyl]-N-{[2-fluoro-5-(trifluoromethoxy)phenyl]methyl}-1H-1,2,3-triazole-4-carboxamide]	–
< 100	< 100	O=C(Cc1cc(OC(F)(F)F)ccc1F)Nc1cn(CCCCn2cc(C(=O)NCc3cccc(OC(F)(F)F)c3)nn2)nn1 [Example 380, 1-[4-(4-{2-[2-fluoro-5-(trifluoromethoxy)phenyl]acetamido}-1H-1,2,3-triazol-1-yl)butyl]-N-{[3-(trifluoromethoxy)phenyl]methyl}-1H-1,2,3-triazole-4-carboxamide]	–
< 100	100 to 500	O=C(Cc1cc(OC(F)(F)F)ccc1F)Nc1cn(CCCCn2cc(C(=O)NCc3ncccc3F)nn2)nn1 [Example 382, 1-[4-(4-{2-[2-fluoro-5-(trifluoromethoxy)phenyl]acetamido} 1H-1,2,3-triazol-1-yl)butyl]-N-[(3-fluoropyridin-2-yl)methyl]-1H-1,2,3-triazole-4-carboxamide]	–
< 100	< 100	Cc1ccc(CNC(=O)c2cn(CCCCn3cc(NC(=O)Cc4cc(OC(F)(F)F)ccc4F)nn3)nn2)cn1 [Example 383, 1-[4-(4-{2-[2-fluoro-5-(trifluoromethoxy)phenyl]acetamido}-1H-1,2,3-triazol-1-yl)butyl]-N-[(6-methylpyridin-3-yl)methyl]-1H-1,2,3-triazole-4-carboxamide]	–
< 100	< 100	O=C(Cc1cc(Cl)ccc1F)Nc1cn(CCCCn2cc(C(=O)NCc3cccc(OC(F)(F)F)c3)nn2)nn1 [Example 385, 1-(4-{4-[2-(5-chloro-2-fluorophenyl)acetamido]-1H-1,2,3-triazol-1-yl}butyl)-N-{[3-(trifluoromethoxy)phenyl]methyl}-1H-1,2,3-triazole-4-carboxamide]	–
100 to 500	500 to 5000	O=C(Cc1cc(Cl)ccc1F)Nc1cn(CCCCn2cc(C(=O)NCc3ncccc3F)nn2)nn1 [Example 387, 1-(4-{4-[2-(5-chloro-2-fluorophenyl)acetamido]-1H-1,2,3-triazol-1-yl}butyl)-N-[(3-fluoropyridin-2-yl)methyl]-1H-1,2,3-triazole-4-carboxamide]	–
500 to 5000	> 5000	O=C(CN1CC(F)C1)Nc1cn(CC(F)CCn2cc(C(=O)NCc3ccccn3)nn2)nn1 (centres unmarked) [Example 389, 1-(3-fluoro-4-{4-[2-(3-fluoroazetidin-1-yl)acetamido]-1H-1,2,3-triazol-1-yl}butyl)-N-(pyridin-2-ylmethyl)-1H-1,2,3-triazole-4-carboxamide]	–
< 100	100 to 500	O=C(CN1CC(F)(F)C1)Nc1cn(CC(F)CCn2cc(C(=O)NCc3cccc(OC(F)(F)F)c3)nn2)nn1 (centres unmarked) [Example 391, 1-(4-{4-[2-(3,3-difluoroazetidin-1-yl)acetamido]-1H-1,2,3-triazol-1-yl}-3-fluorobutyl)-N-{[3-(trifluoromethoxy)phenyl]methyl}-1H-1,2,3-triazole-4-carboxamide]	–
500 to 5000	> 5000	O=C(CN1CC(F)(F)C1)Nc1cn(CC(F)CCn2cc(C(=O)NCc3ccccn3)nn2)nn1 (centres unmarked) [Example 392, 1-(4-{4-[2-(3,3-difluoroazetidin-1-yl)acetamido]-1H-1,2,3-triazol-1-yl}-3-fluorobutyl)-N-(pyridin-2-ylmethyl)-1H-1,2,3-triazole-4-carboxamide]	–
500 to 5000	500 to 5000	Cc1ccc(CNC(=O)c2cn(CCC(F)Cn3cc(NC(=O)CN4CC(F)(F)C4)nn3)nn2)cn1 (centres unmarked) [Example 393, 1-(4-{4-[2-(3,3-difluoroazetidin-1-yl)acetamido]-1H-1,2,3-triazol-1-yl}-3-fluorobutyl)-N-[(6-methylpyridin-3-yl)methyl]-1H-1,2,3-triazole-4-carboxamide]	–
< 100	< 100	O=C(Cc1cccc(OC(F)(F)F)c1)Nc1cn(CC(F)CCn2cc(C(=O)NCc3cc(C(F)(F)F)ccn3)nn2)nn1 (centres unmarked) [Example 394]	–
